ChEMBL document CHEMBL6127050, “Simultaneous inhibition of FLT3 and HDAC by novel 6-ethylpyrazine-2-Carboxamide derivatives provides therapeutic advantages in acute myelocytic leukemia” (Eur J Med Chem, 2024)
pIC50: −log10 of the molar value. Active and inactive are the calls of the source. The rule behind the calls is not given here.

Legend:
[1] = target: T1, Histone deacetylase (Homo sapiens) (UniProt Q13547+O15379+Q9UBN7+Q92769+Q9UQL6+Q8WUI4+Q9BY41+Q96DB2+P56524+Q9UKV0+Q969S8); assay: Inhibition of HDAC in human HeLa nuclear extract using Boc-Lys(Ac)-AMC as substrate at 10000 nM incubated for 0.5 hrs by microplate reader analysis relative to control; type: cell-free
[2] = target: T1, Histone deacetylase (Homo sapiens); assay: Inhibition of HDAC in human HeLa nuclear extract using Boc-Lys(Ac)-AMC as substrate at 200 nM incubated for 0.5 hrs by microplate reader analysis relative to control; type: cell-free
Histone deacetylase = assay: Inhibition of HDAC in human HeLa nuclear extract using Boc-Lys(Ac)-AMC as substrate incubated for 0.5 hrs by microplate reader analysis; type: cell-based
[3] = target: T2, Receptor-type tyrosine-protein kinase FLT3 (Homo sapiens, UniProt P36888); assay: Inhibition of FLT3 (unknown origin) incubated for 40 mins in presence of ATP by kinase-glo plus luminescence assay
T2 sequence (P36888 whole entry): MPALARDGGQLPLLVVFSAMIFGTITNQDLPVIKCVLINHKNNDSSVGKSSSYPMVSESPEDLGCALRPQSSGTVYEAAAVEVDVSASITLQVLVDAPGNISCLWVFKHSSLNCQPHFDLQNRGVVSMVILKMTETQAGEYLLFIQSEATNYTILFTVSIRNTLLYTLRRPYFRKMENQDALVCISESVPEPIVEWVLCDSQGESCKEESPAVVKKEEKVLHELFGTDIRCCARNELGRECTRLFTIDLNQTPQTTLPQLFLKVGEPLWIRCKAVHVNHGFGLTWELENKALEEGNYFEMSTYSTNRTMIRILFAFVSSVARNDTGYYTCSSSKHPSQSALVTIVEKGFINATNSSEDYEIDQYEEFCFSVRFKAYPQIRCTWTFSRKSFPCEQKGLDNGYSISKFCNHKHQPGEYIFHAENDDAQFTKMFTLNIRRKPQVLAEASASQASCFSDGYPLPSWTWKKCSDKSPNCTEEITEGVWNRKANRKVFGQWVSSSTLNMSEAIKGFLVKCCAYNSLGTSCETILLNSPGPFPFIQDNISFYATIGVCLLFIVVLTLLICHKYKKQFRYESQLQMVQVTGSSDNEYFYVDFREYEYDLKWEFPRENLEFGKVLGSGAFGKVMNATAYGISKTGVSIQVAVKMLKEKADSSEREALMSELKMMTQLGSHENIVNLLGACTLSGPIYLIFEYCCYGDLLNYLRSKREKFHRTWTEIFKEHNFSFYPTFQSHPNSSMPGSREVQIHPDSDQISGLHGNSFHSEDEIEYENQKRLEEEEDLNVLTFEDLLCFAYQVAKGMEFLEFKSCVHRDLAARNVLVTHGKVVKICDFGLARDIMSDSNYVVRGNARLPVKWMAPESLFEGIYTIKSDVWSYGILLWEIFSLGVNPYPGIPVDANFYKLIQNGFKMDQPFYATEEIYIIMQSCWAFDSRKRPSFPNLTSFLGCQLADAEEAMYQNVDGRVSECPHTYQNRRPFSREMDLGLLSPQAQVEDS

MOLM-13 [4] = assay: Antiproliferative activity against human MOLM-13 cells incubated for 48 hrs; details: MOLM-13, 48 h
KG-1 = assay: Antiproliferative activity against human KG-1 cells incubated for 48 hrs; details: KG-1, 48 h
THP-1 = assay: Antiproliferative activity against human THP-1 cells incubated for 48 hrs; details: THP-1, 48 h
K562 = assay: Antiproliferative activity against human K562 cells incubated for 48 hrs; details: K562, 48 h
[5] = Toxicity in NOD/SCID mouse xenografted with human MOLM-13 cells assessed as increase in survival rate at 15 mg/kg, IG administered 5 days per week in presence of vorinostat by Kaplan Mayer survival analysis; type: organism-based; details: in vivo, po, 120 h, time 5 day
[6] = Cytotoxicity against HEK293T cells incubated for 48 hrs; type: toxicity, cell-based, HEK-293T; details: human
MOLM-13 [7] = assay: Induction of apoptosis in human MOLM-13 cells assessed as viable cells at 0.1 uM incubated for 48 hrs by Annexin V-FITC staining based flow cytometry analysis (reference value: 94.5 %); type: functional; details: Homo sapiens, MOLM-13, read-out: Activity
MOLM-13 [8] = assay: Induction of apoptosis in human MOLM-13 cells assessed as early apoptotic cells at 0.1 uM incubated for 48 hrs by Annexin V-FITC staining based flow cytometry analysis (reference value: 4.07 %); type: functional
MOLM-13 [9] = assay: Induction of apoptosis in human MOLM-13 cells assessed as late apoptotic cells at 0.1 uM incubated for 48 hrs by Annexin V-FITC staining based flow cytometry analysis (reference value: 1.40 %); type: functional
MOLM-13 [10] = assay: Induction of apoptosis in human MOLM-13 cells assessed as necrotic at 0.1 uM incubated for 48 hrs by Annexin V-FITC staining based flow cytometry analysis (reference value: 0.013 %); type: functional
MOLM-13 [11] = assay: Induction of apoptosis in human MOLM-13 cells assessed as viable cells at 0.1 uM incubated for 48 hrs in presence of vorinostat by Annexin V-FITC staining based flow cytometry analysis (reference value: 94.5 %); type: functional; details: read-out: Activity
MOLM-13 [12] = assay: Induction of apoptosis in human MOLM-13 cells assessed as early apoptotic cells at 0.1 uM incubated for 48 hrs in presence of vorinostat by Annexin V-FITC staining based flow cytometry analysis (reference value: 4.07 %); type: functional
MOLM-13 [13] = assay: Induction of apoptosis in human MOLM-13 cells assessed as late apoptotic cells at 0.1 uM incubated for 48 hrs in presence of vorinostat by Annexin V-FITC staining based flow cytometry analysis (reference value: 1.40 %); type: functional
MOLM-13 [14] = assay: Induction of apoptosis in human MOLM-13 cells assessed as necrotic cells at 0.1 uM incubated for 48 hrs in presence of vorinostat by Annexin V-FITC staining based flow cytometry analysis (reference value: 0.013 %); type: functional
MOLM-13 [15] = assay: Induction of cell cycle arrest in human MOLM-13 cells assessed as accumulation of cells at G0/G1 phase at 0.05 uM measured for 48 hrs by PI/RNase staining based flow cytometric analysis (reference value: 46.24 %); type: functional
MOLM-13 [16] = assay: Induction of cell cycle arrest in human MOLM-13 cells assessed as accumulation of cells at G2M phase at 0.05 uM measured for 48 hrs by PI/RNase staining based flow cytometric analysis (reference value: 10.81%); type: functional
MOLM-13 [17] = assay: Induction of cell cycle arrest in human MOLM-13 cells assessed as accumulation of cells at S-phase at 0.05 uM measured for 48 hrs by PI/RNase staining based flow cytometric analysis (reference value: 42.95%); type: functional
MOLM-13 [18] = assay: Induction of cell cycle arrest in human MOLM-13 cells assessed as accumulation of cells at G0/G1 phase at 0.05 uM measured for 48 hrs in presence of vorinostat by PI/RNase staining based flow cytometric analysis (reference value: 46.24 %); type: functional
MOLM-13 [19] = assay: Induction of cell cycle arrest in human MOLM-13 cells assessed as accumulation of cells at G2M phase at 0.05 uM measured for 48 hrs in presence of vorinostat by PI/RNase staining based flow cytometric analysis (reference value: 10.81%); type: functional
MOLM-13 [20] = assay: Induction of cell cycle arrest in human MOLM-13 cells assessed as accumulation of cells at S-phase at 0.05 uM measured for 48 hrs in presence of vorinostat by PI/RNase staining based flow cytometric analysis (reference value: 42.95%); type: functional
MOLM-13 [21] = assay: Antitumor activity against human MOLM-13 cells xenografted BALB/c mouse assessed as reduction in tumor volume at 10 mg/kg, IG qd administered 5 days a week and measured on day 9 in presence of vorinostat; type: functional, organism-based; details: time 9.0 day
MOLM-13 [22] = assay: Antitumor activity against human MOLM-13 cells xenografted BALB/c mouse assessed as tumor growth inhibition at 10 mg/kg, IG qd administered 5 days a week and measured on day 9 in presence of vorinostat; type: functional; details: MOLM-13, po, 216 h, time 9 day, read-out: TGI
[23] = Toxicity in BALB/c mouse xenografted with human MOLM-13 cells assessed as body weight loss at 10 mg/kg, IG qd administered 5 days a week and measured on day 9 in presence of vorinostat; type: organism-based; details: in vivo, po, 216 h, time 9 day
[24] = Toxicity in BALB/c mouse xenografted with human MOLM-13 cells assessed as lung damage at 10 mg/kg, IG qd administered 5 days a week and measured on day 9 in presence of vorinostat by H and E staining based analysis; type: organism-based; details: in vivo, po, 216 h, time 9 day

Compound CCc1nc(C(N)=O)c(Nc2ccc(N3CCC(N4CCN(c5ncc(C(=O)Nc6ccccc6N)cn5)CC4)CC3)c(OC)c2)nc1NC1CCOCC1 has an inhibition [1] of 4.3%.

With CCc1nc(C(N)=O)c(Nc2ccc(N3CCC(N4CCN(c5ncc(C(=O)NO)cn5)CC4)CC3)c(OC)c2)nc1NC1CCOCC1 the inhibition [2] was 18.7%.

With CCc1nc(C(N)=O)c(Nc2ccc(N3CCN(CCCCCCC(=O)NO)CC3)c(OC)c2)nc1NC1CCOCC1 the IC50 (Histone deacetylase) was 0.33 µM, the pIC50 [3] was 9.22 and the pIC50 (MOLM-13 [4]) was 8.00. The pIC50 (KG-1) was 5.84, the pIC50 (THP-1) was 5.81 and the pIC50 (K562) was 5.97.

Compound CCc1nc(C(N)=O)c(Nc2ccc(N3CCC(N4CCN(Cc5ccc(C(=O)Nc6ccccc6N)cc5)CC4)CC3)c(OC)c2)nc1NC1CCOCC1 has an inhibition [1] of 27.5%.

In the case of CCc1nc(C(N)=O)c(Nc2ccc(N3CCC(N4CCN(C)CC4)CC3)c(OC)c2)nc1NC1CCOCC1 [GILTERITINIB], the Activity [5] was “Non-Toxic”, the pIC50 (MOLM-13 [4]) was 7.92 and the pIC50 (KG-1) was 6.21. It also gave a pIC50 (THP-1) of 6.07, a pIC50 (K562) of 6.00 and an IC50 at 48 h [6] of 0.97 µM. For the same compound, the viability at 0.1 µM (MOLM-13 [7]) was 53.5%, the Activity (MOLM-13 [8]) was 33.5% and the Activity (MOLM-13 [9]) was 12.7%. It also gave an Activity (MOLM-13 [10]) of 0.36%, a viability at 0.1 µM (MOLM-13 [11]) of 46.8% and an Activity (MOLM-13 [12]) of 35%. For the same compound, the Activity (MOLM-13 [13]) was 17.4%, the Activity (MOLM-13 [14]) was 0.88% and the Activity (MOLM-13 [15]) was 50%. It also gave an Activity (MOLM-13 [16]) of 5.53%, an Activity (MOLM-13 [17]) of 44.47% and an Activity (MOLM-13 [18]) of 64.51%. The Activity (MOLM-13 [19]) was 7.24%, the Activity (MOLM-13 [20]) was 28.26% and the Activity (MOLM-13 [21]) was “Active”. The inhibition in vivo at 10 mg/kg (MOLM-13 [22]) was 55.3%, the Activity [23] was “Non-Toxic” and the Activity [24] was “Non-Toxic”.

For CCc1nc(C(N)=O)c(Nc2ccc(N3CCC(N4CCN(Cc5ccc(C(=O)NCc6ccc(/C=C/C(=O)NO)cc6)cc5)CC4)CC3)c(OC)c2)nc1NC1CCOCC1, the IC50 (Histone deacetylase) was 0.063 µM.

CCc1nc(C(N)=O)c(Nc2ccc(N3CCC(N4CCN(C(=O)CCCCC(=O)NO)CC4)CC3)c(OC)c2)nc1NC1CCOCC1 gave an inhibition [2] of 10%.

Work on CCc1nc(C(N)=O)c(Nc2ccc(N3CCC(N4CCN(CCCCCC(=O)NO)CC4)CC3)c(OC)c2)nc1NC1CCOCC1 yielded an inhibition [2] of 36%.

CCc1nc(C(N)=O)c(Nc2ccc(N3CCN(C(=O)CCCCCCC(=O)NO)CC3)c(OC)c2)nc1NC1CCOCC1 showed an IC50 (Histone deacetylase) of 0.1473 µM.

Work on CCc1nc(C(N)=O)c(Nc2ccc(N3CCC(N4CCN(C(=O)CCCCCC(=O)NO)CC4)CC3)c(OC)c2)nc1NC1CCOCC1 yielded an inhibition [2] of 14%.

With CCc1nc(C(N)=O)c(Nc2ccc(N3CCN(Cc4ccc(/C=C/C(=O)NO)cc4)CC3)c(OC)c2)nc1NC1CCOCC1 the IC50 (Histone deacetylase) was 0.0937 µM.

In the case of CCc1nc(C(N)=O)c(Nc2ccc(N3CCN(CCCCC(=O)NO)CC3)c(OC)c2)nc1NC1CCOCC1, the inhibition [2] was 1%.

CCc1nc(C(N)=O)c(Nc2ccc(N3CCC(N4CCN(Cc5ccc(C(=O)NO)cc5)CC4)CC3)c(OC)c2)nc1NC1CCOCC1 gave an inhibition [2] of 18%.

Work on CCc1nc(C(N)=O)c(Nc2ccc(N3CCN(CCCC(=O)NO)CC3)c(OC)c2)nc1NC1CCOCC1 yielded an inhibition [2] of 3%.

In the case of CCc1nc(C(N)=O)c(Nc2ccc(N3CCC(N4CCN(C(=O)CCCC(=O)NO)CC4)CC3)c(OC)c2)nc1NC1CCOCC1, the inhibition [2] was 27%.

With CCc1nc(C(N)=O)c(Nc2ccc(N3CCN(C(=O)CCCCCC(=O)NO)CC3)c(OC)c2)nc1NC1CCOCC1 the IC50 (Histone deacetylase) was 0.2043 µM.

With CCc1nc(C(N)=O)c(Nc2ccc(N3CCN(CCC(=O)NO)CC3)c(OC)c2)nc1NC1CCOCC1 the inhibition [2] was 10%.

In the case of CCc1nc(C(N)=O)c(Nc2ccc(N3CCC(N4CCN(C(=O)CCCCCCC(=O)NO)CC4)CC3)c(OC)c2)nc1NC1CCOCC1, the inhibition [2] was 27%.

Work on CCc1nc(C(N)=O)c(Nc2ccc(N3CCN(CCCCCC(=O)NO)CC3)c(OC)c2)nc1NC1CCOCC1 yielded an inhibition [2] of 25%.

Compound CCc1nc(C(N)=O)c(Nc2ccc(N3CCC(N4CCN(Cc5ccc(/C=C/C(=O)NO)cc5)CC4)CC3)c(OC)c2)nc1NC1CCOCC1 has an inhibition [2] of 28%.

CCc1nc(C(N)=O)c(Nc2ccc(N3CCC(N4CCN(CCCCCCCC(=O)NO)CC4)CC3)c(OC)c2)nc1NC1CCOCC1 showed an inhibition [2] of 28%.
